pIC50: −log10 of the molar value.
Assays:
TxA₂ Synthase [1] = target: T1, TxA₂ Synthase (Rattus norvegicus, UniProt P49430); assay: In vitro effect on TxB₂ synthesis in isolated glomeruli (RIA); assay type: cell-based
T1 construct: Blood was withdrawn from the abdominal aorta of the animals; from tissue; host or cells: whole blood of reduced renal mass (RRM) rats, allowed to clot 1 h at 37°C
T1 sequence (P49430 1-533): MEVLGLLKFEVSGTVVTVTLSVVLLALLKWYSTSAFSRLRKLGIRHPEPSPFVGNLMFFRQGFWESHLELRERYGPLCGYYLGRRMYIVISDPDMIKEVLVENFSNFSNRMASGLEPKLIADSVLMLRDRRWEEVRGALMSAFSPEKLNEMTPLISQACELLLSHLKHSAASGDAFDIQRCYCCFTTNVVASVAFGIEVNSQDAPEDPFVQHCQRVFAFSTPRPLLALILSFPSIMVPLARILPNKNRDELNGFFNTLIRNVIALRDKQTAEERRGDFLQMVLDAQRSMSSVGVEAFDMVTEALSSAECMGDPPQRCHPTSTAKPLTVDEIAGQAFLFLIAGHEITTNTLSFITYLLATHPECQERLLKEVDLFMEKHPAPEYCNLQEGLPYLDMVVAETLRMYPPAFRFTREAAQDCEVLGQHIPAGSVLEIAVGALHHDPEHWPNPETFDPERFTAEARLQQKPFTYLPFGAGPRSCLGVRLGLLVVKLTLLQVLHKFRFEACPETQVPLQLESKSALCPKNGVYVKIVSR
Experimental: (§1) Their ability to inhibit TxA₂ Synthase activity (as reflected by TxB₂ generated in whole blood during clotting or in isolated glomeruli) was tested in vitro and ex vivo in the rat.
(§2) The effect of the compounds on TxA₂ synthesis was evaluated in serum and in glomeruli isolated from kidney cortex of reduced renal mass rats (RRM). Ablation of >70% of renal mass in the rat results in hypertension, proteinuria and glomerular sclerosis of the remnant kidney. Rats with a remnant kidney have increased excretion of thromboxane in the urine when compared with normal rats [Purkerson et al.-Proc.Natl.Acad.Sci.USA 82, 193, 1985].
The isolation of glomeruli was performed as previously described [Patrignani et al., - J. Pharm. Exp. Ther. 228, 2, 472, 1984]
The isolated glomeruli of 4 rats were pooled, suspended in modified Krebs buffer (pH 7.3) and divided into portions of 1 ml each containing a concentration of the test compounds or of the reference compounds.
The TxA₂ synthesis was induced by incubating the glomeruli under shaking at 37°C for 1 h. At that time the incubation was stopped by centrifugation at +4°C, the supernatant collected and stored at -20°C until assayed by RIA.

TxA₂ Synthase [2] = target: T1, TxA₂ Synthase; assay: In vitro effect on TxB₂ synthesis in whole blood during clotting (RIA); assay type: cell-based; settings: for times more potent than the reference compound ASA (TxA₂ synthesis in whole blood): ratio to ASA; for times more potent than the reference compound Dazoxiben (TxA₂ synthesis in whole blood): ratio to Dazoxiben
Experimental: as §1, §2
Blood was withdrawn from the abdominal aorta of the animals under light ether anesthesia.
Samples were then allowed to clot for 1 h at 37°C, centrifuged at 3000 rpm for 10 min, serum collected and stored at -20°C until assayed. TxB₂ levels were determined by RIA according to previously described procedures [Patrono et al.-Thromb.Res. 17, 3/4, 317, 1980] using highly specific antibody.

[3] = test system: chronically cannulated hypertensive rats (SHR); assay: Antihypertensive activity, intra-arterial blood pressure and heart rate; assay type: in vivo
Experimental: The antihypertensive activity of the compounds of the invention was tested in chronically cannulated hypertensive rats (SHR).
For intra-arterial measurements of blood pressure (MBP) catheters (PE50 Clay Adams) were implanted in the right carotid artery under alothane anesthesia. Two days after surgery the animals were placed in a Ballman cage and the arterial catheter was connected to a stathman P23 Db pressure transducer and a Beckman multichannel R611 BP recorder for continuous monitoring of MBP and heart rate (HR).
Measurements were made predrug and 0.5, 1, 2, 4, 6 h after drug or vehicle (methocel 0.5% w/v).

TxA₂ Synthase [4] = target: T1, TxA₂ Synthase; assay: Ex vivo inhibition of TxA₂ synthesis in serum after oral administration; settings: 1 h, p.o., blood taken one hour after treatment, read-out: ED₅₀ inhibition of the synthesis of TxA₂ (ex vivo)
Experimental: as §1
The ex vivo experiments were performed as follows.
The compounds were orally administered to RRM rats by gavage at the dose of 2.5 mg/kg in 0.5% methocel. One hour after treatment rats were anaesthetised with ether, blood was withdrawn from the abdominal aorta and allowed to clot for 1 h at 37°C. Samples were then centrifuged, serum collected and stored at -20°C until assayed.

[5] = Orientative acute oral toxicity; set-up: species or system Mice and rats; settings: in vivo; single oral administration, assessed on the seventh day after treatment; read-out: orientative acute toxicity (LD₅₀)
Experimental: The toxicity of the compounds of the invention is negligible, so that they can be safely used in therapy. Mice and rats which had been deprived of food for nine hours were treated orally with single administrations of increasing doses of compounds of the invention, then housed and normally fed. For example the orientative acute toxicity (LD₅₀) of the compound FCE 24265, assessed on the seventh day after treatment, was higher than 800 mg/kg.

[6] = RRM rats whole blood, clotting 1 h at 37°C, read-out: In vitro effect on TxB₂ synthesis in RRM rats whole blood, IC₅₀

Compound: CC(=O)Oc1ccccc1C(=O)O [ASA, Acetylsalicylic acid, reference compound]
- pIC50 (TxA₂ Synthase [1]): 3.85
- pIC50 (TxA₂ Synthase [2]): 4.38

Compound: CCOC(=O)C1=C(C)NC(C)=C(C(=O)OCC)C1c1cccc(-n2ccnc2)c1 [FCE 24265, 1,4-dihydro-2,6-dimethyl-4-[3-(1H-imidazol-1-yl)phenyl]-3,5-pyridinedicarboxylic acid, diethyl ester]
- pIC50 (TxA₂ Synthase [1]; RRM rats isolated glomeruli, incubation 1 h at 37°C, read-out: In vitro effect on TxB₂ synthesis in RRM rats glomeruli, IC₅₀): 7.44
- times more potent than ASA on glomerular TxB₂ synthesis (TxA₂ Synthase [1]; glomeruli, ratio to ASA): ~4,000 times
- times more potent than Dazoxiben on glomerular TxB₂ synthesis (TxA₂ Synthase [1]; glomeruli, ratio to Dazoxiben): 4.7 times
- pIC50 (TxA₂ Synthase [2]; [6]): 6.77
- times more potent than the reference compound ASA (TxA₂ synthesis in whole blood) (TxA₂ Synthase [2]): 247 times
- times more potent than the reference compound Dazoxiben (TxA₂ synthesis in whole blood) (TxA₂ Synthase [2]): 7 times
- changes in heart rate [3]: No changes
- time until blood pressure returned toward normal levels ([3]; after treatment): 3 h
- peak effect on blood pressure (MBP) ([3]; peak reached at 30 minutes postdrug): -30 ± 4 mm Hg
- ED50 (TxA₂ Synthase [4]): 2.3 mg/kg
- LD50 at 168 h [5]: > 800 mg/kg

Compound: CCOC(=O)C1=C(C)NC(C)=C(C(=O)OCC)C1c1cccc(-c2cccnc2)c1 [FCE 26055, 1,4-dihydro-2,6-dimethyl-4-[3-(3-pyridyl)phenyl]-3,5-pyridinedicarboxylic acid, diethyl ester]
- pIC50 (TxA₂ Synthase [2]; [6]): 6.35
- times more potent than the reference compound ASA (TxA₂ synthesis in whole blood) (TxA₂ Synthase [2]): 90 times
- times more potent than the reference compound Dazoxiben (TxA₂ synthesis in whole blood) (TxA₂ Synthase [2]): 3 times
